The values that follow come from PMC11788587, “Validating Low‐Dose Iohexol as a Marker for Glomerular Filtration Rate by In Vitro and In Vivo Studies” (Clinical and Translational Science, 2025).

Series [1] deals with human Phase I or Phase II enzymes. Set-up: method as in PMID 32948918. The note with it: cited from earlier work.
In series [2] the target is T1, hOAT1 (Homo sapiens, UniProt Q4U2R8).
T1 construct: expressed in transfected cells; host or cells: HEK-293 (293) cells, pEBTetD plasmid, doxycycline-induced
T1 sequence (Q4U2R8 1-563): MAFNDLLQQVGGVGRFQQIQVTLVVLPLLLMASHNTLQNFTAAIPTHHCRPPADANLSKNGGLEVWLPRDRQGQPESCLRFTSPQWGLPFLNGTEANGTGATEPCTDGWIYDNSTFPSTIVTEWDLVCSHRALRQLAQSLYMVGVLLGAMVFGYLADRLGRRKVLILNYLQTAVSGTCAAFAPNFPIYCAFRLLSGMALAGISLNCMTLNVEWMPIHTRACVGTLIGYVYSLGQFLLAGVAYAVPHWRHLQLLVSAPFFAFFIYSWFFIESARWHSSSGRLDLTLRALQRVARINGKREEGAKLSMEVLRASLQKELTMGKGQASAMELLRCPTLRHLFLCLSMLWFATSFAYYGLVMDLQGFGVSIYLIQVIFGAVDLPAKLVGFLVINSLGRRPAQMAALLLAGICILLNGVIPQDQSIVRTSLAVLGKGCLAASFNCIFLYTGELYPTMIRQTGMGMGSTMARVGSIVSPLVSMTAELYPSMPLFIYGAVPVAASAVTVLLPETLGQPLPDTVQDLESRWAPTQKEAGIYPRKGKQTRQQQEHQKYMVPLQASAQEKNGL
Nature of the series: Inhibition of hOAT1-mediated PAH uptake, stably transfected 293 cells. Format: cell-based. To be noted: substrate 10 µM PAH, median (95% CI). An excerpt:
We characterized the inhibitory potential of iohexol on major drug transporters recommended by regulatory agencies, which were previously assessed in a clinical transporter phenotyping cocktail study. These transporters include hOAT1, hOAT3, hOCT1, hOCT2, hMATE1, hMATE2K, human organic anion transporter polypeptides (hOATP)1B1, hOATP1B3, and human multidrug resistance protein (hMDR)1. Additionally, we investigated whether iohexol is a substrate for any of the renal transporters among these, including hOAT1/3, hOCT1/2, and hMATE1/2K. Cell‐based uptake assays were used to assess the activities of hOAT1/3, hOCT1/2, hMATE1/2K, and hOATP1B1/1B3. Inside‐out membrane vesicle uptake assays were used to evaluate the activity of hMDR1.
To determine the maximal inhibitory potential of iohexol, intracellular accumulation of a standard substrate was measured with and without the clinically relevant highest concentrations of iohexol. Control inhibitors were tested in each experiment.
In all subsequent in vitro studies, control experiments were conducted to validate the results. These included positive controls for substrates and inhibitors, as well as cells either without transporter expression or transfected with an empty vector, and control vesicles. Each condition, including cells or vesicles with the transporter and their respective controls, was analyzed in at least three replicates. For detailed information on materials, methods, and data analysis techniques used, refer to the Supporting Information. […]
R version 4.2.1 (R Foundation for Statistical Computing, Vienna, Austria) was used for statistical evaluations and data visualization. The data analysis approach for the in vitro study was detailed by Hsin CH et al..^1 In brief, for transport assays, the initial uptake rate was calculated by normalizing the substrate concentration to both the protein concentration and the incubation time for each dish or well. The transporter-mediated uptake rate (net uptake) was determined by performing an element-wise subtraction of uptake rates from different conditions. […]

Details of series [3]: method as in PMID 27679715. The note with it: cited from earlier work.

In the case of `CC(=O)N(CC(O)CO)c1c(I)c(C(=O)NCC(O)CO)c(I)c(C(=O)NCC(O)CO)c1I` (centres unmarked) [iohexol], the “Inhibition of human Phase I or Phase II enzymes” value in series [1] is on record as “does not inhibit”. Further, in series [2] (20 mM iohexol), the “Inhibitory effect (% reduction of specific activity)” value is reported as “no notable inhibitory effects”. For the same compound, the inhibition at 1000 µM in series [2] (HEK293, 1 mM iohexol, read-out: Inhibitory effect (% reduction of specific activity)) is -0.45%. Also, in series [2] (HEK293, 20 mM iohexol, read-out: Inhibitory effect (% reduction of specific activity)), the inhibition at 20000 µM was 3.1%. In addition, in series [3], the Plasma protein binding is listed as 1.5%.
